Earlier results as cited in patent EP0553294B1, “THE MANUFACTURE OF COMPOSITIONS FOR THE TREATMENT OF CELL PRO[…]” (AMGEN INC., priority 1990, dated 1992).

Test system: Kaposi's Sarcoma
Conditions: administered alone; general statement, no test described

**Q.** For `Cc1cn([C@H]2C[C@H](N=[N+]=[N-])[C@@H](CO)O2)c(=O)[nH]c1=O` [AZT, zidovudine], which “effectiveness on Kaposi's Sarcoma” value is on record?
**A.** not effective
